Where two headings read alike, the source gives them in different places.
How the values were obtained:
physchem = type: physicochemical; details: for remaining at 360 h: solid, 75% relative humidity, read-out: Content of the Active Ingredient after 15 days
Procedure: . Then, the content of the active ingredient not decomposed was analyzed using a high performance liquid chromatography. The sample containing only the active ingredient without a stabilizer was used as a control.
<Conditions for High Performance Liquid Chromatography>
Column: μ-Bondapak C18 (4.6×250 mm) or the like
Detector: Absorption photometer in ultraviolet part (wavelength: 280 nm)
Mobile Phase: acetonitrile/phosphate buffer (pH 7.8)=45/55, v/v

[1] = Stability of the microgranule prepared in the presence of a binding agent; type: physicochemical; details: microgranules of Table 3
Procedure: Microgranules were prepared according to the information represented in the following Table 3 using the stabilizers in a mole ratio of 1:1 with respect to the active ingredient (IY-81149) and using hydroxypropylmethylcellulose as a binding agent. A fluidized-bed granulator (SFC-MINI, FREUND. CO., LTD., Japan) by which the contact with the ambient moisture can be excluded and preparation and dryness of the granule can be simultaneously carried out in a short time was used. That is, the active ingredient and stabilizer were introduced into a chamber of the fluidized-bed granulator in the amounts shown in Table 3. Then, the binding agent-containing solution was sprayed under the influx air temperature (65° C.) of the chamber, during which the mixture of the active ingredient and stabilizer in the chamber was maintained at a temperature of 40° C. or less. The binding agent was used in an amount of 7% by weight with respect to the granule finally obtained, and the solvent water was used in an amount to dilute the binding agent by 15 times. Also, the total amount of the active ingredient and stabilizer to be introduced into the chamber was adjusted to 300 g. The average particle diameter of the microgranule prepared by appropriately controlling the spray rate and temperature was 0.8 mm.

Compound | stabilizing effect upon the active ingredient of the present invention (physchem) | Content of the Active Ingredient, initial (physchem; stabilizer not used (control)) [%] | Content of the Active Ingredient, initial (physchem; with Al(OH)3, mole ratio 1:1) [%] | Content of the Active Ingredient, initial (physchem; with Arginine, mole ratio 1:1) [%] | Content of the Active Ingredient, initial (physchem; with Histidine, mole ratio 1:1) [%] | Content of the Active Ingredient, initial (physchem; with K2 CO3, mole ratio 1:1) [%] | Content of the Active Ingredient, initial (physchem; with K2 HPO4, mole ratio 1:1) [%] | Content of the Active Ingredient, initial (physchem; with KHCO3, mole ratio 1:1) [%] | Content of the Active Ingredient, initial (physchem; with Lysine, mole ratio 1:1) [%] | Content of the Active Ingredient, initial (physchem; with Mg(OH)2, mole ratio 1:1) [%] | Content of the Active Ingredient, initial (physchem; with Na2 CO3, mole ratio 1:1) [%] | Content of the Active Ingredient, initial (physchem; with Na2 HPO4, mole ratio 1:1) [%] | Content of the Active Ingredient, initial (physchem; with NaHCO3, mole ratio 1:1) [%] | also measured
[OH][Al]([OH])[OH] [Al(OH)3, aluminum hydroxide] | much less stabilizing effect than magnesium hydroxide |  |  |  |  |  |  |  |  |  |  |  |  | 
COc1ccnc(C[S+]([O-])c2nc3cc(-n4cccc4)ccc3[nH]2)c1C (centres unmarked) [IY-81149] |  | 100.1 | 99.6 | 99.2 | 100.6 | 100.5 | 100.0 | 100.3 | 100.6 | 99.8 | 99.4 | 99.2 | 98.9 | 
NCCCC[C@H](N)C(=O)O [Lysine, lysine] |  |  |  |  |  |  |  |  |  |  |  |  |  | stabilizing effect upon the active ingredient of the present invention (physchem; compared with the other stabilizers (Examples 1 and 2)): much less stabilizing effect than magnesium hydroxide
[Mg+2].[OH-].[OH-] [Mg(OH)2, magnesium hydroxide] | superior stabilizing effect |  |  |  |  |  |  |  |  |  |  |  |  | stabilizing effect compared with the other stabilizers [1]: superior stabilizing effect
COc1ccc2[nH]c([S+]([O-])Cc3ncc(C)c(OC)c3C)nc2c1 (centres unmarked) [Omeprazole, omeprazole, reference compound] |  | 99.3 | 99.6 | 99.1 | 99.7 | 100.0 | 99.4 | 99.9 | 99.2 | 100.2 | 100.1 | 99.8 | 99.7 | order of stabilizing effect of the tested stabilizers (physchem; mole ratio 1:1, 15 days, 40° C., relative humidity of 75%): Na2 HPO4 >NaHCO3 >Mg(OH)2 >arginine>Na2CO3 >K2 HPO4 >Al(OH)3 >histidine>K2 CO3 >lysine>KHCO3; remaining at 360 h (physchem; stabilizer not used (control), 40° C., relative humidity of 75%): 26.7%; remaining at 360 h (physchem; with Al(OH)3, mole ratio 1:1, 40° C., relative humidity of 75%): 67.6%; remaining at 360 h (physchem; with Arginine, mole ratio 1:1, 40° C., relative humidity of 75%): 76%; remaining at 360 h (physchem; with Histidine, mole ratio 1:1, 40° C., relative humidity of 75%): 67.1%; remaining at 360 h (physchem; with K2 CO3, mole ratio 1:1, 40° C., relative humidity of 75%): 63.9%; remaining at 360 h (physchem; with K2 HPO4, mole ratio 1:1, 40° C., relative humidity of 75%): 70.7%; remaining at 360 h (physchem; with KHCO3, mole ratio 1:1, 40° C., relative humidity of 75%): 59.4%; remaining at 360 h (physchem; with Lysine, mole ratio 1:1, 40° C., relative humidity of 75%): 60.3%; remaining at 360 h (physchem; with Mg(OH)2, mole ratio 1:1, 40° C., relative humidity of 75%): 86.1%; remaining at 360 h (physchem; with Na2 CO3, mole ratio 1:1, 40° C., relative humidity of 75%): 75.3%; remaining at 360 h (physchem; with Na2 HPO4, mole ratio 1:1, 40° C., relative humidity of 75%): 94%; remaining at 360 h (physchem; with NaHCO3, mole ratio 1:1, 40° C., relative humidity of 75%): 87.5%

— US6280773A, “Optimally stabilized microgranule comprising 5-pyrrolyl-2-pyridylmethylsulfinylbenzimidazole derivative” (IL Yang Pharm. Co., Ltd., priority 1998, dated 2001)
